One assay has as its system ChAT. In words: ChAT mRNA expression in N2a cells (RT-PCR). It counts as cell-based, mouse. The conditions noted are these: single ginsenoside (FIG. 7A). The source says:
(§1) The present inventor reported that ChAT overexpressing human neural stem cells restored cognition with an increase of ACh levels in rat model (Park et al., Exp. Neurol., 234: 521-526, 2012). This implies that the increase of the ChAT level in cholinergic neurons plays a critical role in cognition enhancement and thus the cholinergic gene locus “VAChT/ChAT” can be a putative target for therapeutic approaches on AD. Thus the present inventor prepared transfected Neuro-2a (N2a) cells that over-express the human ChAT and APP (designated as “N2a.hChAT” and “N2a.hAPPswe”, respectively, FIG. 6) and the N2a.hChAT and N2a.hAPPswe cells were treated with the faction groups 1 to 5 isolated in the Example 3 at a centration of 50 μg/ml. Neuro-2a mouse neuroblastoma cells (Korean Cell Line Bank, Korea) were grown in DMEM supplemented with 10% fetal bovine serum (FBS), 100 U/m penicillin, and 100 μg/ml streptomycin (Invitrogen, USA) under 5% CO2 at 37° C. in tissue culture flasks. For all experiments, cells were grown to greater than 90% confluency and subjected to no more than 20 cell passages. The medium was changed every 2-3 days. Subconfluent cells were harvested and seeded at a density of 5×10^5 cells or 5×10^6 cells in poly-L-lysine-coated 35 mm or 60 mm culture plates. To recover the cells that are not completely saturated for analysis, poly-L-lysine coated 35 mm or 60 mm culture was seeded at a concentration of 5×10^5 or 5×10^6 cells on the plates. The extent of expression of hChAT and APP in the N2a.hChAT and N2a.hAAPswe cells treated with the faction groups 1 to 5 was quantified with RT-PCR using primers described in the below Table 2. At this time, beta-actin was used as an internal control.
(§2) Specifically, total RNA extracts from N2a cells were prepared using the Trizol method (Invitrogen, USA) and cDNA was synthesized from RNA by reverse transcription of 1 μg of total RNA using a reverse transcription system (Improm-II, Promega, USA) and oligo dT primers in a total volume of 20 μL. PCR amplification was performed using the primers described in Table 2 (Bioneer, Korea). Quantitative real-time PCR reactions were run on a Rotor-Gene 6000 (Corbett Research, Australia) using SensiMix™ SYBR Hi-ROX Kit (Bioline, U.K.) in 20 μL reaction mixtures. Each real-time-PCR master mix contained 10 μL 2× enzyme master mix, 7.0 μL RNase free water, 1 μL of each primer (10 pM each), and 1 μL diluted template. The PCR was performed with an initial pre-incubation step for 15 min at 95° C., followed by 45 cycles of 95° C. for 15 s, annealing at 52° C. for 15 s, and extension at 72° C. for 10 s. Melting curve analysis was used to confirm formation of the expected PCR product, and products from all assays were additionally tested with 1.2% agarose gel electrophoresis to confirm the correct lengths. An inter-run calibrator was used, and a standard curve was created for each gene to obtain PCR efficiencies. Relative sample expression levels were calculated using Rotor-Gene 6000 Series Software 1.7, and were expressed relative to β-actin and corrected for between-run variability. Data for the experimental samples were expressed as a fold unit the internal control gene.
(§3) In order to examine whether five ginsenosides affect the expression of ChAT related to the synthesis of acetylcholine and VAChT controlling extracellular secretion of acetylcholine, the present inventor analyzed the expression level of ChAT and VAChT after treating the five ginsenosides to N2a […] cells, respectively.

The test system of the next assay is VAChT. In words: VAChT mRNA expression in N2a cells (RT-PCR). The conditions noted are these: single ginsenoside (FIG. 7B). It counts as cell-based, mouse.
Excerpt: as §1, §2, §3

A further assay has as its system acetylcholine. The conditions noted are these: Benishin et al., Pharmacol., 42: 223-229, 1991; cited from earlier work.

The source of these data is patent US20160022751A1, “NOVEL COMPOSITION FOR TREATING ALZHEIMER'S DISEASE AND IMPROVING COGNITIVE FUNCTION OF ALZHEIMER'S PATIENTS” (GANGNEUNG-WONJU NATIONAL UNIVERSITY INDUSTRY ACADEMY …, priority 2014, published 2016).

On to `CC(C)=CCC[C@](C)(O[C@@H]1O[C@H](CO)[C@@H](O)[C@H](O)[C@H]1O)[C@H]1CC[C@]2(C)[C@@H]1[C@H](O)C[C@@H]1[C@@]3(C)CC[C@H](O)C(C)(C)[C@@H]3[C@@H](O[C@@H]3O[C@H](CO)[C@@H](O)[C@H](O)[C@H]3O)C[C@]12C` [ginsenoside Rg1], for which the “expression of ChAT mRNA” value in the assay on ChAT was “no significant increase”. Also, the “expression of VAChT mRNA” value in the assay on VAChT is “no significant increase”.
With `CC(C)=CCC[C@](C)(O[C@@H]1O[C@H](CO[C@@H]2O[C@H](CO)[C@@H](O)[C@H](O)[C@H]2O)[C@@H](O)[C@H](O)[C@H]1O)[C@H]1CC[C@]2(C)[C@@H]1[C@H](O)C[C@@H]1[C@@]3(C)CC[C@H](O[C@@H]4O[C@H](CO)[C@@H](O)[C@H](O)[C@H]4O[C@@H]4O[C@H](CO)[C@@H](O)[C@H](O)[C@H]4O)C(C)(C)[C@@H]3CC[C@]12C` [ginsenoside Rb1], the “expression of ChAT mRNA” value in the assay with ChAT is on record as “no significant increase”. Moreover, the “expression of VAChT mRNA” value with VAChT is “no significant increase”. In addition, the “release of acetylcholine (ACh) from hippocampal slices” value in the assay on acetylcholine is “facilitate the release of acetylcholine”.
